Reference: patent US20170258774A1 (priority 2016, published 2017)

Tests used:
BChE [1] = target: BChE (Homo sapiens, UniProt P06276); format: biochemical
BChE [2] = target: BChE (Rattus norvegicus, UniProt Q9JKC1); format: biochemical
BChE [3] = target: BChE (Cavia porcellus, UniProt H0V4F8); format: biochemical, guinea pig
Chain of BChE (Cavia porcellus, UniProt H0V4F8) (H0V4F8 29-602 limits assumed): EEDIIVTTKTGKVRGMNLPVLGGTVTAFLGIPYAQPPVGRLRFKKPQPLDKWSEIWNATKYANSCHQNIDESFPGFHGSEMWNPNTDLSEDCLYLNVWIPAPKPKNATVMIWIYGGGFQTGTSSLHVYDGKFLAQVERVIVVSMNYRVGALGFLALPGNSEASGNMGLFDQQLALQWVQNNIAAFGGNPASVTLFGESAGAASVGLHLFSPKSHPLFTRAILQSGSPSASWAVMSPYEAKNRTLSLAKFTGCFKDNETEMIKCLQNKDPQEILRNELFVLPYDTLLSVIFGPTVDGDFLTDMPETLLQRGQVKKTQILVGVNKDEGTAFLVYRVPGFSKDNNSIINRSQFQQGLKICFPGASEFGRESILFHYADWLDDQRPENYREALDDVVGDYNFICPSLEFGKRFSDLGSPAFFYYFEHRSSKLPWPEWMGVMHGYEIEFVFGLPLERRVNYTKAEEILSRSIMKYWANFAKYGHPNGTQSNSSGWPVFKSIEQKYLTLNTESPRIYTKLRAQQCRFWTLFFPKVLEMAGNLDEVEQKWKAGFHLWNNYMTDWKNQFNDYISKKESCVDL

Chain of BChE (Rattus norvegicus, UniProt Q9JKC1) (Q9JKC1 24-597 limits assumed): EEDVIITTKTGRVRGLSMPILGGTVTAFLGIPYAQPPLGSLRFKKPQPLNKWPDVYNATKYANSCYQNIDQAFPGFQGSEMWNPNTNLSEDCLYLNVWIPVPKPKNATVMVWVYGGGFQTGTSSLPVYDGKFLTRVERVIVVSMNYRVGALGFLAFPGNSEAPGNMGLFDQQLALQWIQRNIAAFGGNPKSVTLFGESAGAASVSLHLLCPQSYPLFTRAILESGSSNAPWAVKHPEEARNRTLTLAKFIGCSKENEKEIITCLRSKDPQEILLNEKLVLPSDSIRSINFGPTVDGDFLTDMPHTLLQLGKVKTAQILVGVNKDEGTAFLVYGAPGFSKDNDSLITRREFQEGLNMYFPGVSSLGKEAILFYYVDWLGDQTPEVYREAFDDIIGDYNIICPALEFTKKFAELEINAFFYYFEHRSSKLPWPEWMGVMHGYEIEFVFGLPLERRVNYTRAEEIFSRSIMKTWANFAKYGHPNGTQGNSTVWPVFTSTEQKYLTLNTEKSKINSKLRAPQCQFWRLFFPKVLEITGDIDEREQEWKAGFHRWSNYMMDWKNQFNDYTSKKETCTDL
Chain of BChE (Homo sapiens, UniProt P06276) (P06276 29-602): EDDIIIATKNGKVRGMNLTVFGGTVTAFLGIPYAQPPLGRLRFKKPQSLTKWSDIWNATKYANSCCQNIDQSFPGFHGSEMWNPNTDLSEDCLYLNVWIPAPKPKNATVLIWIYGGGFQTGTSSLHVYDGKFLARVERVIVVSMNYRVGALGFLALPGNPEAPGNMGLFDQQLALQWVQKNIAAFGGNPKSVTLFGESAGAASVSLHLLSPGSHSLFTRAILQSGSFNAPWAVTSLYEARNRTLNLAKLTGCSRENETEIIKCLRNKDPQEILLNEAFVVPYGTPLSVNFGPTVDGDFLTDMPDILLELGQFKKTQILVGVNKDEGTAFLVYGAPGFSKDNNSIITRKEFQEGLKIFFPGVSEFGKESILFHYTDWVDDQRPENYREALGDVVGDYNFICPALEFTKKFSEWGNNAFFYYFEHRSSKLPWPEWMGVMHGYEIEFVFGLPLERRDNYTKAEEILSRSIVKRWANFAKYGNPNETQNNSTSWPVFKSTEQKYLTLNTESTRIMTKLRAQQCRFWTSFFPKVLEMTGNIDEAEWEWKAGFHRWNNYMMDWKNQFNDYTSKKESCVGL

Structure (SMILES)	OP Inhibitory Concentrations of at least 80% BChE (BChE [1]) [µM]	OP Inhibitory Concentrations of at least 80% BChE (BChE [2]) [µM]	OP Inhibitory Concentrations of at least 80% BChE (BChE [3]) [µM]	BChE inhibitory potency relative to phorate oxon (BChE [2])
CCOP(=O)(OCC)SCSCC [PHO, phorate oxon]	0.178	10.0	5.60	–
CCOP(=O)(OCC)SC[S+]([O-])CC (centres unmarked) [PHOsox, phorate oxon sulfoxide]	–	1.00	–	ten-fold more potent
CCOP(=O)(OCC)Oc1ccc([N+](=O)[O-])cc1 [PXN, phosphoric acid diethyl 4-nitrophenyl ester]	0.032	1.78	0.178	–
